# Test results taken from PMC6274357, “Antiprotozoal and Antiglycation Activities of Sesquiterpene Coumarins from Ferula narthex Exudate” (Molecules, 2016).
# How the values were obtained:
# [1] = system: Leishmania promastigote stage; set-up: method as in doi:10.1016/j.phytol.2014.04.009; conditions: cited from earlier work
# [2] = system: formation of Advanced Glycation Endproducts (AGEs), BSA-glucose; assay: BSA-glucose antiglycation assay; assay type: biochemical, bovine; conditions: for BSA-Glucose % Inhibition: at 0.25 mM (table footnote a)
# Experimental: The BSA (bovine serum albumin) -glucose and BSA-MGO (methyl glyoxal) antiglycation assays were carried out as reported before. The test protocol is attached as Supplementary Materials. […]
# 1. Antiglycation Assay (BSA-Glucose Assay)
# The antiglycation assay was performed according to the method developed by Matsuura et al.
# (2002) with minor modifications. The reaction mixture (300 μL) contained bovine serum albumin
# (BSA) (10 mg/mL, 135 μL), D-glucose (500 mM, 135 μL) dissolved in phosphate buffer (50 mM, pH
# 7.4, containing sodium azide (0.02%, added to prevent bacterial growth) and test compounds (30 μL),
# at different final concentrations (1.5–0.023 mM for isolated constituents or 100–1.17 μg/mL for
# extracts) dissolved in 100 % DMSO. The mixtures were incubated at 60 °C for 48 h. After incubation,
# the reaction mixture was allowed to cool down at room temperature. Then 100 μL reaction mixture
# was transferred to a new plastic tube (1.5 mL) and the reaction was stopped by adding 10 μL of 100%
# (w/v) trichloroacetic acid (TCA) and to precipitate proteins. The TCA-added mixture was kept at 4 °C
# for 10 min, followed by centrifugation (14,000 rpm, 4 °C, 4 min). The supernatant containing unreacted
# D-glucose, test sample and interfering substances was discarded, whereas the precipitate containing
# AGEs-BSA was redissolved with 0.8 mL alkaline PBS (137 mM NaCl, 8.1 mM Na2HPO4, 2.68 mM KCl,
# 1.47 mM KH2PO4, pH 10). The change in fluorescence intensity (excitation 335 nm, emission 385 nm;
# excitation 370, emission 440) due to formation of AGEs was monitored by spectrofluorometry
# (Tecan™ Infinite M200, Giessen, The Netherlands). In order to eliminate interference by autofluorescenc e
# of the test compounds, a parallel incubation of test substance with BSA at 60 °C without D-glucose
# was performed for all samples. Quercetin (0.5–0.0312 mM final concentration) and aminoguanidine
# (3–0.046 mM final concentration) were used as reference compounds.
# 2. The AGEs Inhibition was Calculated as
# % inhibition = {1 − (FBSA + glucose + test substance − FBSA + test substance)/(FBSA
# + glucose − FBSA)} × 100 (1)
# where F is the fluorescence intensity.
# calculated using Sigma plot® 13.0. […]
# [3] = system: formation of Advanced Glycation Endproducts (AGEs), BSA-MGO (methyl glyoxal); assay: BSA-MGO antiglycation assay; assay type: biochemical, bovine; conditions: at 2 mM
# [4] = system: formation of Advanced Glycation Endproducts (AGEs), BSA-MGO (methyl glyoxal); assay: BSA-MGO antiglycation assay; assay type: biochemical, bovine
# Experimental: The BSA (bovine serum albumin) -glucose and BSA-MGO (methyl glyoxal) antiglycation assays were carried out as reported before. The test protocol is attached as Supplementary Materials.
# Supplementary Materials: Antiprotozoal and
# Antiglycation Activities of Sesquiterpene Coumarins
# from Ferula narthex Exudate […]
# 2. The AGEs Inhibition was Calculated as […]
# 3. Protein-Glyoxal Interaction (BSA-MGO Assay)
# The antiglycation assay using methylgloxyl (MGO) was performed according to the method
# developed by Peng et al. (2007) with slight modifications. Briefly, methylglyoxal (135 μL, 5.75 mM)
# was incubated with BSA (135 μL, 10 mg/mL) dissolved in phosphate buffer (50 mM, pH 7.4,
# containing sodium azide (0.02%), added to prevent bacterial growth) and test compounds (30 μL) at
# different final concentrations (1.5–0.023 mM) in 100% DMSO. The reaction mixture was incubated at
# 37 °C for one week. Control solutions only contained methylglyoxal (135 μL, 5.75 mM) BSA (135 μL,
# 1 0 mg/mL) and DMSO (100%) only. The blank samples of similar composition were also prepared
# simultaneously and kept at 4 °C for one week. The change in fluorescence intensity (excitation
# 335 nm, emission 385 nm; excitation 370, emission 440) due to formation of AGEs was monitored by
# spectrofluorometry (Tecan® Infinite M200, Giessen, The Netherlands). Aminoguanidine (3–0.046 mM
# final concentration) was used as reference compound. The AGEs inhibition was calculated as
# % AGEs inhibition = [1 − (S − Sb)/(C − Cb)] × 100 (2)
# where S and C were fluorescence of test samples (in DMSO) and control (test mixtures containing
# only DMSO) incubated at 37 °C, and where Sb and Cb were fluorescence for samples incubated at 4 °C. […]
# [5] = system: Plasmodium falciparum K1; assay: Antiplasmodial activity; assay type: cell-based; conditions: K1, read-out: IC50 Pf-K1
# Experimental: (§1) Fractions and isolated compounds were evaluated for antimicrobial activity in an integrated screening panel as reported before.
# [6] = system: Trypanosoma brucei; assay: Antitrypanosomal activity, T. brucei; assay type: cell-based; conditions: read-out: IC50 T. bruc.
# Experimental: as §1
# [7] = system: Leishmania infantum; assay: Antileishmanial activity, L. infantum; assay type: cell-based
# Experimental: as §1
# [8] = system: Peritoneal Murine Macrophages (PMM); assay: Cytotoxicity on peritoneal murine macrophages; assay type: cell-based; conditions: Mus musculus, Macrophage
# Experimental: as §1
# [9] = system: Trypanosoma cruzi; assay: Antitrypanosomal activity, T. cruzi; assay type: cell-based; conditions: read-out: IC50 T. cruz.
# Experimental: as §1
# [10] = system: MRC-5: Human fetal lung fibroblasts; assay: Cytotoxicity on MRC-5 cells; assay type: cell-based; conditions: MRC5
# Experimental: as §1
# [11] = system: Staphylococcus aureus; assay: Antibacterial screening, S. aureus; assay type: cell-based
# Experimental: as §1
# [12] = system: Escherichia coli; assay: Antibacterial screening, E. coli; assay type: cell-based
# Experimental: as §1
# [13] = system: Aspergillus fumigatus; assay: Antifungal screening, A. fumigatus; assay type: cell-based
# Experimental: as §1
# [14] = system: Microsporum canis; assay: Antifungal screening, M. canis; assay type: cell-based
# Experimental: as §1
smiles,measurement,setting,value
CC1=CC[C@@H]2C(C)(C)[C@@H](O)CC[C@@]2(C)[C@@H]1COc1ccc2ccc(=O)oc2c1 [conferol],"IC value, antileishmanial activity",[1],11.51 µg/mL
"CC(=O)O[C@H](CC/C(C)=C/CC/C(C)=C/COc1ccc2ccc(=O)oc2c1)C(C)(C)O [Compound 6, 10′R-Acetyl-karatavacinol]",BSA-Glucose IC50,[2],did not reach the 50% inhibition level
same,BSA-Glucose % Inhibition,[2],36%
same,BSA-MGO % Inhibition,[3],20%
same,BSA-MGO IC50,[4],the 50% inhibition level was not reached
"CC1=CC[C@@H]2C(C)(C)[C@H](O)CC[C@@]2(C)[C@@H]1COc1ccc2ccc(=O)oc2c1 [Compound 1, Feselol]",BSA-Glucose IC50,[2],did not reach the 50% inhibition level
same,BSA-Glucose % Inhibition,[2],47%
same,IC50,[5],22.4 µM
same,IC50,[6],8.1 µM
same,IC50,[7],6.8 µM
same,IC50,[8],8 µM
same,IC50,[9],8.6 µM
same,IC50,[10],8 µM
same,IC50,[4],1710 µM
"Cc1ccc(C(=O)Nc2ccc(S(=O)(=O)O)c3cc(S(=O)(=O)O)cc(S(=O)(=O)O)c23)cc1NC(=O)c1cccc(NC(=O)Nc2cccc(C(=O)Nc3cc(C(=O)Nc4ccc(S(=O)(=O)O)c5cc(S(=O)(=O)O)cc(S(=O)(=O)O)c45)ccc3C)c2)c1 [suramine, reference compound]",IC50,[6],0.03 µM
CC[C@H]1OC(=O)[C@H](C)[C@@H](O[C@H]2C[C@@](C)(OC)[C@@H](O)[C@H](C)O2)[C@H](C)[C@@H](O[C@@H]2O[C@H](C)C[C@H](N(C)C)[C@H]2O)[C@](C)(O)C[C@@H](C)C(=O)[C@H](C)[C@@H](O)[C@]1(C)O [erythromycin],IC50,[11],11.2 µg/mL
"C/C(=C\COc1ccc2ccc(=O)oc2c1)CC/C=C(\C)CC[C@@H](O)C(C)(C)O [Compound 5, 10′R-Karatavacinol]",BSA-Glucose IC50,[2],did not reach the 50% inhibition level
same,BSA-Glucose % Inhibition,[2],32%
same,IC50,[5],16 µM
same,IC50,[6],32.4 µM
same,IC50,[7],32.4 µM
same,IC50,[8],32 µM
same,IC50,[9],9.4 µM
same,IC50,[10],20.4 µM
same,IC50,[4],1830 µM
"N=C(N)NN [Aminoguanidine, reference compound]",IC50,[2],1750 µM
same,IC50,[4],150 µM
"CCN(CC)CCCC(C)Nc1ccnc2cc(Cl)ccc12 (centres unmarked) [chloroquine, reference compound]",IC50,[5],0.16 µM
O=C(N[C@H](CO)[C@H](O)c1ccc([N+](=O)[O-])cc1)C(Cl)Cl [chloramphenicol],IC50,[12],4.9 µM
"CC1=CC(=O)[C@@H]2C(C)(C)[C@H](O)CC[C@@]2(C)[C@@H]1COc1ccc2ccc(=O)oc2c1 [Compound 2, Ligupersin A]",IC50,[2],410 µM
same,BSA-MGO % Inhibition,[3],40%
same,BSA-MGO IC50,[4],the 50% inhibition level was not reached
COc1cc(Cc2cnc(N)nc2N)cc(OC)c1OC [trimethoprim],IC50,[12],0.25 µg/mL
"O=c1c(O)c(-c2ccc(O)c(O)c2)oc2cc(O)cc(O)c12 [Quercetin, reference compound]",IC50,[2],230 µM
same,IC50,[4],350 µM
"CC(=O)OC(CC=C(C)C)/C(C)=C/C(O)C/C(C)=C/COc1ccc2ccc(=O)oc2c1 (centres unmarked) [Compound 3, 8′-O-Acetyl-asacoumarin A]",BSA-Glucose IC50,[2],did not reach the 50% inhibition level
same,BSA-Glucose % Inhibition,[2],44%
same,IC50,[5],7.4 µM
same,IC50,[6],32.4 µM
same,IC50,[7],12.7 µM
same,IC50,[8],32 µM
same,IC50,[9],19.1 µM
same,IC50,[10],31.7 µM
same,IC50,[4],1030 µM
CN(C/C=C/C#CC(C)(C)C)Cc1cccc2ccccc12 [terbinafine],IC50,[13],0.8 µM
same,IC50,[14],0.11 µg/mL
"CC(C)=CCC(O)/C(C)=C/C(O)C/C(C)=C/COc1ccc2ccc(=O)oc2c1 (centres unmarked) [Compound 4, Asacoumarin A]",IC50,[2],1830 µM
same,IC50,[5],1.3 µM
same,BSA-MGO % Inhibition,[3],35%
same,IC50,[6],32.6 µM
same,IC50,[7],12.7 µM
same,IC50,[8],32 µM
same,IC50,[9],10.5 µM
same,IC50,[10],11.7 µM
same,BSA-MGO IC50,[4],the 50% inhibition level was not reached
"O=C(Cn1ccnc1[N+](=O)[O-])NCc1ccccc1 [benznidazole, reference compound]",IC50,[9],3.3 µM
